Test results: patent publication US20260028365A1 (BIOGEN MA INC., priority 2022, published 2026)

Tests used:
JH2 domain of human Tyk2 = JH2 domain of human Tyk2 (Homo sapiens (Human), UniProt P29597); test: JH2 Biochemical Assay (TR-FRET probe displacement); assay type: binding; details: TR-FRET probe displacement, JH2 domain of human Tyk2
JAK1 = JAK1 (Homo sapiens (Human), UniProt P23458); test: pSTAT3 Cell Assay (MSD, TF1 cells); assay type: cell-based; details: IL-6 stimulation, MSD
Outline: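 Serum starvation, 1 h compound (10 pt, 4-fold from 10 μM), IL-6 15 min, lysis. pSTAT3 read by MSD immunoassay, anti-STAT3 Abs. Normalized % activity vs log[cpd], 4-PL fit → IC50.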

Tyk2 = Tyk2 (Homo sapiens (Human), UniProt P29597); test: pSTAT4 Cell Assay (MSD, NK92 cells); assay type: cell-based; details: MSD
Sequence of Tyk2 (P29597 whole entry): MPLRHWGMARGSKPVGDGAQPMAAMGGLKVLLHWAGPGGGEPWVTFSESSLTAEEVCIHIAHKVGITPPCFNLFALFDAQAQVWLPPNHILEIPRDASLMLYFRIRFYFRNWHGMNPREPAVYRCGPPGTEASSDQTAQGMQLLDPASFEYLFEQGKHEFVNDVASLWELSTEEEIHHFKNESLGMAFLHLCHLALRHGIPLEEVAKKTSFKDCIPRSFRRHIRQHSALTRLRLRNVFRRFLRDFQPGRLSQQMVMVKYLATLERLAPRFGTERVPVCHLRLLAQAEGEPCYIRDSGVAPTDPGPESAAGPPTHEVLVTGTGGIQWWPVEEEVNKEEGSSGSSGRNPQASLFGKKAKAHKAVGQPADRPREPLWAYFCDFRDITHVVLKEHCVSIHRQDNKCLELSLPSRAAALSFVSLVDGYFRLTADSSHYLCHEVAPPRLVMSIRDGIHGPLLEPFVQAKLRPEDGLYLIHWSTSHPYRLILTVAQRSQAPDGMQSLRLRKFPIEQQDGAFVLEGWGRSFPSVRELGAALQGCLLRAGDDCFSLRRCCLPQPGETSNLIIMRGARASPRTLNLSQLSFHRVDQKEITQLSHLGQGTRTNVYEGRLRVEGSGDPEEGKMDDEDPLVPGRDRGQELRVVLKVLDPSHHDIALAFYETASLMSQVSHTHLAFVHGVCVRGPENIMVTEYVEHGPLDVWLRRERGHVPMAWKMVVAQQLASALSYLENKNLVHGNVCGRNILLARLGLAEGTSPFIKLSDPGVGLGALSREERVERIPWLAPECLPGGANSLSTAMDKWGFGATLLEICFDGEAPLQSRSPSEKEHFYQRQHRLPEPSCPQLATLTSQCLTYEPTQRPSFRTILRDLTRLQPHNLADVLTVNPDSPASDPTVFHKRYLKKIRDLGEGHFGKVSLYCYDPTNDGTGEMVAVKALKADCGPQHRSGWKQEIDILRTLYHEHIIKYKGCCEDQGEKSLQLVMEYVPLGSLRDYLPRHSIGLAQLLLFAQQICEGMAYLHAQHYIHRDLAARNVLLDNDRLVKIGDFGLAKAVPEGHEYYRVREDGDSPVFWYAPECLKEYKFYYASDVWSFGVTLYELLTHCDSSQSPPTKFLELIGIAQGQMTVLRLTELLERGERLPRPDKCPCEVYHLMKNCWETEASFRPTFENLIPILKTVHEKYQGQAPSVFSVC

JAK2 = JAK2 (Homo sapiens (Human), UniProt O60674); test: pSTAT5 Cell Assay (MSD, TF1 cells); assay type: cell-based; details: IL-3 stimulation, MSD
Sequence of JAK2 (O60674 whole entry): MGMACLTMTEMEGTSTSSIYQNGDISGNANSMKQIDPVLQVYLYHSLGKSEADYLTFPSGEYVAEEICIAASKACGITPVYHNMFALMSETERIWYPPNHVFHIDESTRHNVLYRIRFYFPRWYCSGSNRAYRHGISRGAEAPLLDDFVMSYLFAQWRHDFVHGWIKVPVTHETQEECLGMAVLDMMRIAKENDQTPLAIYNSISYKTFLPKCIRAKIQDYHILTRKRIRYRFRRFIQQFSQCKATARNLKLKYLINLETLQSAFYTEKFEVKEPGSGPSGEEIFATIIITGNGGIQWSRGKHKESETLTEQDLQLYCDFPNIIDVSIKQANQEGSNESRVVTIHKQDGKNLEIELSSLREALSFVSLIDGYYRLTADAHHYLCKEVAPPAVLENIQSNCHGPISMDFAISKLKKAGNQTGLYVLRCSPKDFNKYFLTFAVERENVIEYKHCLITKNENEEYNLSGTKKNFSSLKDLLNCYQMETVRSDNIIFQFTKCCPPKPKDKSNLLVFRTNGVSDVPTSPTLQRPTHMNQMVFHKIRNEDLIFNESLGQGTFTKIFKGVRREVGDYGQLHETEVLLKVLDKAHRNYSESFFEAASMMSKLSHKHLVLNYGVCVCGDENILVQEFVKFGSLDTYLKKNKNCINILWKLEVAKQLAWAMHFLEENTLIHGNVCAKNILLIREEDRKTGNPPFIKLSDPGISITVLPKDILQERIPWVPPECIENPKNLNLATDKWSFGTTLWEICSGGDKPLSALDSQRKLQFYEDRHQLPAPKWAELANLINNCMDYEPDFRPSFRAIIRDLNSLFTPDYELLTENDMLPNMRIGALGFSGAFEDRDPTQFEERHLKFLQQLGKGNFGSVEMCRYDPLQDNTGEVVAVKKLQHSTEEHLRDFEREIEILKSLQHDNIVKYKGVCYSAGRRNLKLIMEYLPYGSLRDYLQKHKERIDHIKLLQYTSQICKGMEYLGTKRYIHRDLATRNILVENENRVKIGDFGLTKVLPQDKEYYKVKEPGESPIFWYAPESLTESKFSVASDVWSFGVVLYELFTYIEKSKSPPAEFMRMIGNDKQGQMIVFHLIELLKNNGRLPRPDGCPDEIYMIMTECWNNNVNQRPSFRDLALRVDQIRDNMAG
Method: Compounds of the disclosure were assessed for their ability to inhibit the JAK2 kinase activity on STAT5 utilizing an MSD-platform plate-based assay format. TF1 cells natively expressing STAT5 and JAK2 were serum-starved to reduce background phosphorylation levels, then cells were treated with compounds of disclosure for 1 hour with a 10-point four-fold dilution series starting at 10 μM. Cells were then stimulated with 30 ng/mL IL-3 for 15 minutes. Cells were then lysed and pSTAT5 levels were quantitated using an MSD plate-based assay with anti-STAT5 antibodies. The data were normalized and the percent activity versus log concentration of compound was fitted with a 4-parameter logistic model to generate a curve and an IC50 value.

Sequence of JH2 domain of human Tyk2 (P29597 575-876): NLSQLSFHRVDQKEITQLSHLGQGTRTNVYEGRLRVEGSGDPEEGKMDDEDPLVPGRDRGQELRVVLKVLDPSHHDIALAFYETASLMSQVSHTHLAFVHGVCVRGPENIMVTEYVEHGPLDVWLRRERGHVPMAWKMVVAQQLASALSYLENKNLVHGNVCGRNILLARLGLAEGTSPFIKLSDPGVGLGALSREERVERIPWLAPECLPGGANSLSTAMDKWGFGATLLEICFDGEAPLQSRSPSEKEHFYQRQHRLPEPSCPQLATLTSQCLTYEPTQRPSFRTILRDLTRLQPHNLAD
Sequence of JAK1 (P23458 whole entry): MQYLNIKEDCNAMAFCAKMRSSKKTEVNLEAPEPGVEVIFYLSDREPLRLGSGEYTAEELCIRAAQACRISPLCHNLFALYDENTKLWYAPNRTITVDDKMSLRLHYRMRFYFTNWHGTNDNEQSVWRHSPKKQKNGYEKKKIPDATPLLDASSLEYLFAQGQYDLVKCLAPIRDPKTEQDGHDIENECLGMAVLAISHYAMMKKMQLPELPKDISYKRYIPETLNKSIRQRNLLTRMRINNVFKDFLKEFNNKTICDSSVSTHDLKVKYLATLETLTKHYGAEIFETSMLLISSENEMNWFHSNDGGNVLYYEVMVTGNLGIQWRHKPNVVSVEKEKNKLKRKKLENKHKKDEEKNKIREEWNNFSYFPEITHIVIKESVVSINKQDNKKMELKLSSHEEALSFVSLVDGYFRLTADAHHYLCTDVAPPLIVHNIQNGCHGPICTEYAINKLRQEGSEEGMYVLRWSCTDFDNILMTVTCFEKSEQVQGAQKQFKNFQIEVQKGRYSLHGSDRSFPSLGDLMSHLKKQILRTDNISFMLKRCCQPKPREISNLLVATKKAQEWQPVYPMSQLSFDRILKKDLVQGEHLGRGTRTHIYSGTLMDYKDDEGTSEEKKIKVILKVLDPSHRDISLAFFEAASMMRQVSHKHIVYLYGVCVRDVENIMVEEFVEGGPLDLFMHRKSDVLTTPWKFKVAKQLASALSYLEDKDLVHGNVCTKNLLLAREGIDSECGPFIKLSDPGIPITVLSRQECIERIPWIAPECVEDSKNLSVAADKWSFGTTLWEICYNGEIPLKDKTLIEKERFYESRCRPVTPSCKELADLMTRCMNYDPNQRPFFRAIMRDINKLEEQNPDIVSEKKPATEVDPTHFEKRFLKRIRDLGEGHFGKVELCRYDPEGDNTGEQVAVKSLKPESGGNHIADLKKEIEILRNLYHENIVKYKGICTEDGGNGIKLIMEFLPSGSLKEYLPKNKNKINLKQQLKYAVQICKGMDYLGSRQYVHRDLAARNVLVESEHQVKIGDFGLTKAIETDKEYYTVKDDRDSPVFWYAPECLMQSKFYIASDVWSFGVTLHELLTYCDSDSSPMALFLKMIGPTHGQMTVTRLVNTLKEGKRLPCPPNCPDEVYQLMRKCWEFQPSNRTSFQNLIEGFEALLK

Row | SMILES | IC50 (JH2 domain of human Tyk2) | IC50 (JAK1) | IC50 (Tyk2) | IC50 (JAK2)
1 | COCCOc1cnc(NC(C)=O)cc1Nc1cc(C)nc(C(C)(F)F)n1 [Example 22, N-(4-((2-(1,1-difluoroethyl)-6-methylpyrimidin-4-yl)amino)-5-(2-methoxyethoxy)pyridin-2-yl)acetamide] | ≤ 10 nM | ≥ 1000 nM | ≤ 10 nM | ≥ 1000 nM
2 | CC(=O)Nc1cc(Nc2cc(C)nc(C(C)(F)F)n2)c(C2CC2)cn1 [Example 29, N-(5-cyclopropyl-4-((2-(1,1-difluoroethyl)-6-methylpyrimidin-4-yl)amino)pyridin-2-yl)acetamide] | ≤ 10 nM | ≥ 1000 nM | 100 to 1000 nM | ≥ 1000 nM
3 | CCOc1cnc(NC(C)=O)cc1Nc1cc(OCCOC)nc(C(C)(F)F)n1 [Example 32, N-(4-((2-(1,1-difluoroethyl)-6-(2-methoxyethoxy)pyrimidin-4-yl)amino)-5-ethoxypyridin-2-yl)acetamide] | ≤ 10 nM | ≥ 1000 nM | 10 to 100 nM | ≥ 1000 nM
4 | CCc1cc(Nc2cc(NC(C)=O)ncc2OC)nc(C(C)(F)F)n1 [Example 36, N-(4-((2-(1,1-difluoroethyl)-6-ethylpyrimidin-4-yl)amino)-5-methoxypyridin-2-yl)acetamide] | ≤ 10 nM | ≥ 1000 nM | 10 to 100 nM | ≥ 1000 nM
5 | COCCOc1cc(Nc2cc(NC(C)=O)ncc2OC)nc(C(C)(F)F)n1 [Example 37, N-(4-((2-(1,1-difluoroethyl)-6-(2-methoxyethoxy)pyrimidin-4-yl)amino)-5-methoxypyridin-2-yl)acetamide] | ≤ 10 nM | ≥ 1000 nM | 100 to 1000 nM | ≥ 1000 nM
6 | CC(=O)Nc1cc(Nc2cc(C)nc(C(C)(F)F)n2)c(OC(C)C)cn1 [Example 39, N-(4-((2-(1,1-difluoroethyl)-6-methylpyrimidin-4-yl)amino)-5-isopropoxypyridin-2-yl)acetamide] | ≤ 10 nM | ≥ 1000 nM | 10 to 100 nM | ≥ 1000 nM
7 | COc1cnc(NC(C)=O)cc1Nc1cc(C)nc(C(C)(F)F)n1 [Example 46, N-(4-((2-(1,1-difluoroethyl)-6-methylpyrimidin-4-yl)amino)-5-methoxypyridin-2-yl)acetamide] | ≤ 10 nM | ≥ 1000 nM | 10 to 100 nM | ≥ 1000 nM
8 | [2H]C([2H])([2H])C([2H])([2H])Oc1cnc(NC(C)=O)cc1Nc1cc(C)nc(C(C)(F)F)n1 [Example 49, N-(4-((2-(1,1-difluoroethyl)-6-methylpyrimidin-4-yl)amino)-5-(ethoxy-d5)pyridin-2-yl)acetamide] | ≤ 10 nM | ≥ 1000 nM | 10 to 100 nM | ≥ 1000 nM
9 | COc1cc(Nc2cc(NC(C)=O)ncc2-c2ccn(C)n2)nc(C(C)(F)F)n1 [Example 50, N-(4-((2-(1,1-difluoroethyl)-6-methoxypyrimidin-4-yl)amino)-5-(1-methyl-1H-pyrazol-3-yl)pyridin-2-yl)acetamide] | ≤ 10 nM | ≥ 1000 nM | ≤ 10 nM | ≥ 1000 nM
10 | COc1cnc(NC(C)=O)cc1Nc1cc(C(C)C)nc(C(C)(F)F)n1 [Example 52, N-(4-((2-(1,1-difluoroethyl)-6-isopropylpyrimidin-4-yl)amino)-5-methoxypyridin-2-yl)acetamide] | ≤ 10 nM | ≥ 1000 nM | 10 to 100 nM | ≥ 1000 nM
11 | COCCOc1cnc(NC(C)=O)cc1Nc1cc(C2CC2)nc(C(C)(F)F)n1 [Example 66, N-(4-((6-cyclopropyl-2-(1,1-difluoroethyl)pyrimidin-4-yl)amino)-5-(2-methoxyethoxy)pyridin-2-yl)acetamide] | ≤ 10 nM | ≥ 1000 nM | ≤ 10 nM | ≥ 1000 nM
12 | COCCOc1cnc(NC(C)=O)cc1Nc1cncc(C(C)(F)F)n1 [Example 67, N-(4-((6-(1,1-difluoroethyl)pyrazin-2-yl)amino)-5-(2-methoxyethoxy)pyridin-2-yl)acetamide] | ≤ 10 nM | ≥ 1000 nM | 10 to 100 nM | ≥ 1000 nM
13 | CCc1cc(Nc2cc(NC(C)=O)ncc2OCCCOC)nc(C(C)(F)F)n1 [Example 69, N-(4-((2-(1,1-difluoroethyl)-6-ethylpyrimidin-4-yl)amino)-5-(3-methoxypropoxy)pyridin-2-yl)acetamide] | ≤ 10 nM | ≥ 1000 nM | 10 to 100 nM | ≥ 1000 nM
14 | COCCOc1cnc(NC(C)=O)cc1Nc1cc(OC(C)C)nc(C(C)(F)F)n1 [Example 76, N-(4-((2-(1,1-difluoroethyl)-6-isopropoxypyrimidin-4-yl)amino)-5-(2-methoxyethoxy)pyridin-2-yl)acetamide] | ≤ 10 nM | ≥ 1000 nM | ≤ 10 nM | ≥ 1000 nM
15 | CCOc1cc(Nc2cc(NC(C)=O)ncc2OCCOC)nc(C(C)(F)F)n1 [Example 77, N-(4-((2-(1,1-difluoroethyl)-6-ethoxypyrimidin-4-yl)amino)-5-(2-methoxyethoxy)pyridin-2-yl)acetamide] | ≤ 10 nM | ≥ 1000 nM | ≤ 10 nM | ≥ 1000 nM
16 | CCc1cc(Nc2cc(NC(=O)OC)ncc2OCCOC)nc(C(C)(F)F)n1 [Example 87, methyl (4-((2-(1,1-difluoroethyl)-6-ethylpyrimidin-4-yl)amino)-5-(2-methoxyethoxy)pyridin-2-yl)carbamate] | ≤ 10 nM | ≥ 1000 nM | ≤ 10 nM | ≥ 1000 nM
17 | CCC(=O)Nc1cc(Nc2cc(CC)nc(C(C)(F)F)n2)c(OCCOC)cn1 [Example 88, N-(4-((2-(1,1-difluoroethyl)-6-ethylpyrimidin-4-yl)amino)-5-(2-methoxyethoxy)pyridin-2-yl)propionamide] | ≤ 10 nM | ≥ 1000 nM | ≤ 10 nM | ≥ 1000 nM
18 | COc1cnc(NC(C)=O)cc1Nc1cc(OC2CC2)nc(C(C)(F)F)n1 [Example 91, N-(4-((6-cyclopropoxy-2-(1,1-difluoroethyl)pyrimidin-4-yl)amino)-5-methoxypyridin-2-yl)acetamide] | ≤ 10 nM | ≥ 1000 nM | 10 to 100 nM | ≥ 1000 nM
19 | CC(=O)Nc1cc(Nc2cc(C)nc(C(C)(F)F)n2)c(OCc2ccccn2)cn1 [Example 101, N-(4-((2-(1,1-difluoroethyl)-6-methylpyrimidin-4-yl)amino)-5-(pyridin-2-ylmethoxy)pyridin-2-yl)acetamide] | ≤ 10 nM | ≥ 1000 nM | 10 to 100 nM | ≥ 1000 nM
20 | CC(=O)Nc1cc(Nc2cc(OC3CC3)nc(C(C)(F)F)n2)c(OCC2CCCO2)cn1 (stereo not drawn) [Example 139, N-(4-((6-cyclopropoxy-2-(1,1-difluoroethyl)pyrimidin-4-yl)amino)-5-((tetrahydrofuran-2-yl)methoxy)pyridin-2-yl)acetamide] | ≤ 10 nM | ≥ 1000 nM | ≤ 10 nM | ≥ 1000 nM
21 | CC(=O)Nc1cc(Nc2cc(C)nc(C(C)(F)F)n2)c(-c2ccc(C#N)cn2)cn1 [Example 145, N-(5-cyano-4′-((2-(1,1-difluoroethyl)-6-methylpyrimidin-4-yl)amino)-[2,3′-bipyridin]-6′-yl)acetamide] | ≤ 10 nM | ≥ 1000 nM | ≤ 10 nM | ≥ 1000 nM
